Biological target: T1, DLAR Ig1-FN3 (Drosophila melanogaster, UniProt P16621)
T1 construct: hexahistidine (C); made in house; host or cells: HEK-293T cells with kifunensine or GnTI- HEK293S cells
T1 sequence (P16621 33-606): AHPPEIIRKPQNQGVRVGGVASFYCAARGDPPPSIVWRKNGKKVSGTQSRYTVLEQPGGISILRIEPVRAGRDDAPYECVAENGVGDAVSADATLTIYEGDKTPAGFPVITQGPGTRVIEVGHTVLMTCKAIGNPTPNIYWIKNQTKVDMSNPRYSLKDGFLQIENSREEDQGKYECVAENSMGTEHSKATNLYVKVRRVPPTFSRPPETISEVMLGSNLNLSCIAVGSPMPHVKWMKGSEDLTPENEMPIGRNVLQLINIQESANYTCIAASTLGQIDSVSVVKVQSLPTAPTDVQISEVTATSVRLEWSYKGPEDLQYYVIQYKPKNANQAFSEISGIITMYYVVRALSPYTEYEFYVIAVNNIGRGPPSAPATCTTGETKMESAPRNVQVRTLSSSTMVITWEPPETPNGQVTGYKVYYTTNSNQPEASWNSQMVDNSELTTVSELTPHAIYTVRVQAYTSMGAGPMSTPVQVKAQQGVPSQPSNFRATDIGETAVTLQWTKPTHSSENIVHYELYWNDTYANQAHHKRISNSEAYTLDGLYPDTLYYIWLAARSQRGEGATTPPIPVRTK
Assay: SEC-MALS, heparin-induced oligomerisation of DLAR
Format: biochemical
Method: MALS experiments were carried out on a […] System (Wyatt Technologies). All proteins were purified as described above, and samples were incubated alone or with an oligosaccharide ligand for an hour at room temperature prior to use in MALS analysis. For size defined heparin fragments (Iduron dp4-dp30; product codes HO04-HO30) a five-fold molar excess of oligosaccharide to protein was used, except for the series of experiments presented in FIG. 13, where a range of RPTPσ constructs were tested with a separate batch of dp10 at a two-fold molar excess (FIG. 37, highlighted in blue). Equivalent amounts (equal mg/ml concentrations) of HS (Iduron, GAG-HS01) and CS (Sigma, C4384) were used for MALS experiments as had been for heparin dp10 (in giving a five-fold molar excess). […] All Ig1-FN3 proteins were injected at approximately 10 μM. Size exclusion chromatography was performed in 10 mM Tris, 50 mM NaCl, pH 7.5 on a Superdex75 or Superdex200 HR10/30 column (GE Healthcare), attached to an Agilent chromatography system. An Optilab rEX Refractive Index detector and a Dawn Helios II Multi-Angle Light Scattering (MALS) detector recorded the refractive index and light scattering of the samples upon elution from the size exclusion column. The Wyatt software ASTRA was used to analyse all the data collected.

Heparin
oligomerisation of DLAR Ig1-FN3: promotes the oligomerisation
